From PMC9887599, “Synthesis, Optical Properties, and Antiproliferative Evaluation of NBD-Triterpene Fluorescent Probes” (Journal of Natural Products, 2022) come the findings set out here.

For data set [1], the system named is HT-29 human colon adenocarcinoma. The data set is described as follows: MTT cell-viability assay, HT-29. In kind it is cell-based. As to conditions: 72 h, untreated control cells as 100% viability. How it is done: (§1) The cytotoxic effects of 12 NBD-Aa-triterpene conjugates (1–12) were tested on three different cancer cell lines as a representation of cancers from different tissues and organs (B16-F10 murine melanoma, HT-29 human colon adenocarcinoma, and HepG2 human hepatocyte carcinoma). Cell viability was determined by MTT colorimetric analysis, with increasing concentration levels of each compound (0–200 μg/mL) and incubation for 72 h. The MTT assay was based on the metabolic reduction of 3-(4,5-dimethylthiazol-2-yl)-2,5-diphenyltetrazolium bromide (MTT) to a violet-colored compound (formazan), with a maximum absorbance at 570 nm. Cell viability was proportional to the amount of formazan and was expressed as the percentage of viable treated cells relative to untreated control cells. The concentration at which the derivatives halved the number of viable cells in the three cancer lines (IC50) was determined. […] These NBD conjugates of BO or BM also had higher IC50 values than their precursors (BO or BM), even in NBD conjugates with the shortest-chain ω-amino acid linker (6AHA) (Table 2). Due to these high IC50 values, all of these NBD-conjugated compounds were discarded for further cytometric studies.
(§2) The effect of the synthesized compounds on the viability of tumor cells was assessed using the MTT assay, based on the ability of living cells to metabolically reduce 3-(4,5-dimethylthiazole)-2,5-diphenyltetrazole bromide, rendering formazan, a colored compound with a maximum absorbance of 570 nm. To study the cytotoxic effects of the compounds in the three cancer cell lines, the different lines were seeded in 96-well plates at a cell density per well of 5 × 10^3 for B16-F10, 6 × 10^3 for HT-29, and 15 × 10^3 for HepG2. After seeding, the plates were grown for 24 h and subsequently treated in triplicate with different compounds at different concentrations (0–200 μg/mL) for 72 h. After this time, the cells were stained by adding […] of MTT (0.5 mg/mL) per well and incubated for 1 h. Subsequently, the cells were washed with phosphate-buffered saline (PBS), and formazan was resuspended in 100 μL of DMSO per well. Cell viability was measured by absorbance at 550 nm in an ELISA plate reader (Tecan Sunrise MR20–301, TECAN, Austria).
(§3) For this, Sigmaplot 12.5 software was used, and all quantitative data were expressed as means ± standard deviation (SD). All data shown are representative of at least two independent experiments performed in triplicate.
A general note: Tetrazolium dyes change colour on reduction, which living cells bring about.

For another data set, the system named is B16-F10 murine melanoma. The data set is described as follows: MTT cell-viability assay, B16-F10. Format: cell-based. As to conditions: Mus musculus, 72 h, untreated control cells as 100% viability. How it is done: as §1, §2, §3
Data set [2] relates to HepG2 human hepatocyte carcinoma. Briefly: MTT cell-viability assay, HepG2. In kind it is cell-based. As to conditions: 72 h, untreated control cells as 100% viability. How it is done:
as §1, §2, §3

A short description of data set [3]: Absorption and fluorescence spectroscopy (photophysical data). Format: physicochemical. As to conditions: DMSO, 25 °C; for τ (half-life time of fluorescence): 485 nm pulsed LED; for Φ (fluorescence quantum yield): Coumarin 6 as standard; for (λem)max: excitation at 480 nm.
The subject of data set [4] is B16-F10, HT-29, and HepG2. Briefly: MTT cell-viability assay, summary over the three cancer cell lines. In kind it is cell-based, mouse, human. As to conditions: 72 h, stated as holding in most cases, read-out: IC50 concentrations over the three cancer cell lines, in most cases. How it is done:
as §1, §2, §3

Bounds are passed on as bounds.

As for `CC1(C)CC[C@]2(C(=O)OCc3ccccc3)CC[C@]3(C)C(=CC[C@@H]4[C@@]5(C)C[C@@H](O)[C@H](O)C(C)(C)[C@@H]5CC[C@]43C)[C@@H]2C1` [BM, 28-benzyl maslinate, reference compound], the IC50 turned out to be 15.3 ± 0.5 µM in data set [1], 19 ± 0.2 µM with B16-F10 murine melanoma and 17 µM in data set [2].
In the case of `CC1(C)CC[C@]2(C(=O)OCc3ccccc3)CC[C@]3(C)C(=CC[C@@H]4[C@@]5(C)CC[C@H](O)C(C)(C)[C@@H]5CC[C@]43C)[C@@H]2C1` [BO, 28-benzyl oleanolate, reference compound], the IC50 in data set [1] was 67.1 ± 3.2 µM; in the data set with B16-F10 murine melanoma, 52.2 ± 0.9 µM; in data set [2], 38.7 ± 1.7 µM.
As to `CC1(C)CC[C@]2(C(=O)OCc3ccccc3)CC[C@]3(C)C(=CC[C@@H]4[C@@]5(C)CC[C@H](OC(=O)CCCCCNc6ccc([N+](=O)[O-])c7nonc67)C(C)(C)[C@@H]5CC[C@]43C)[C@@H]2C1` [Compound 3, Benzyl 3β-((6-((7-Nitrobenzo[C][1,2,5]oxadiazol-4-yl)amino)hexanoyl)oxy)olean-12-en-28-oate], in data set [3], the “(λabs)max” value was 480 nm, the “ε (molar extinction coefficient)” value turned out to be 4035 M^–1 cm^–1, the “τ (half-life time of fluorescence)” value is listed as 7.761 ns and the “Φ (fluorescence quantum yield)” value was 0.67. Moreover, the “(λem)max” value in data set [3] came out at 545 nm. Also, the IC50 in data set [1] came to 63.3 ± 2.4 µM. In the data set with B16-F10 murine melanoma, this molecule came in with an IC50 of 76.6 ± 3.7 µM. The IC50 in data set [4] is more than 80 µM. In addition, the IC50 in data set [2] is 74.3 ± 0.7 µM.
On to `CC1(C)CC[C@]2(C(=O)OCc3ccccc3)CC[C@]3(C)C(=CC[C@@H]4[C@@]5(C)C[C@@H](OC(=O)CCCCCNc6ccc([N+](=O)[O-])c7nonc67)[C@H](O)C(C)(C)[C@@H]5CC[C@]43C)[C@@H]2C1` [Compound 4, Benzyl 3β-Hydroxy-2α-((6-((7-nitrobenzo[c][1,2,5]oxadiazol-4-yl)amino)hexanoyl)oxy)olean-12-en-28-oate], for which, in data set [3], the “(λabs)max” value came out at 480 nm, the “ε (molar extinction coefficient)” value was 1338 M^–1 cm^–1, the “τ (half-life time of fluorescence)” value was 7.650 ns and the “Φ (fluorescence quantum yield)” value is recorded as 0.72. Further, the “(λem)max” value in data set [3] came out at 545 nm. The IC50 in data set [1] worked out at 121 ± 4 µM. This molecule showed an IC50 with B16-F10 murine melanoma of 96.4 ± 0.9 µM. For the same molecule, the IC50 in data set [4] was more than 80 µM. For the same molecule, the IC50 in data set [2] worked out at 91.2 ± 2.3 µM.
Take `CC1(C)CC[C@]2(C(=O)O)CC[C@]3(C)C(=CC[C@@H]4[C@@]5(C)CC[C@H](OC(=O)CCCCCCCNc6ccc([N+](=O)[O-])c7nonc67)C(C)(C)[C@@H]5CC[C@]43C)[C@@H]2C1` [Compound 5, 3β-((8-((7-Nitrobenzo[c][1,2,5]oxadiazol-4-yl)amino)octanoyl)oxy)olean-12-en-28-oic Acid]: in data set [3], the “(λabs)max” value worked out at 480 nm, the “ε (molar extinction coefficient)” value stood at 1144 M^–1 cm^–1, the “τ (half-life time of fluorescence)” value is reported as 7.654 ns and the “Φ (fluorescence quantum yield)” value is listed as 0.73. Also, the “(λem)max” value in data set [3] was found to be 545 nm. The molecule also displayed an IC50 in data set [1] of 105 ± 1.2 µM. In the data set on B16-F10 murine melanoma, this molecule gave an IC50 of 137 ± 2 µM. In data set [4], the IC50 is more than 50 µM. Besides, in data set [2], the IC50 stood at 95.7 ± 3.4 µM.
In the case of `CC1(C)CC[C@]2(C(=O)O)CC[C@]3(C)C(=CC[C@@H]4[C@@]5(C)C[C@@H](OC(=O)CCCCCCCNc6ccc([N+](=O)[O-])c7nonc67)[C@H](O)C(C)(C)[C@@H]5CC[C@]43C)[C@@H]2C1` [Compound 6, 3β-Hydroxy-2α-((8-((7-nitrobenzo[c][1,2,5]oxadiazol-4-yl)amino)octanoyl)oxy)olean-12-en-28-oic Acid], in data set [3], the “(λabs)max” value came out at 481 nm, the “ε (molar extinction coefficient)” value came out at 1986 M^–1 cm^–1, the “τ (half-life time of fluorescence)” value was found to be 7.621 ns and the “Φ (fluorescence quantum yield)” value is 0.55. In addition, the “(λem)max” value in data set [3] stood at 546 nm. For the same molecule, the IC50 in data set [1] worked out at 45.2 ± 0.9 µM. Further, the IC50 in the data set with B16-F10 murine melanoma amounted to 39.5 ± 0.8 µM. The IC50 in data set [4] is more than 50 µM. Also, the IC50 in data set [2] turned out to be 98.5 ± 0.8 µM.
Take `CC1(C)CC[C@]2(C(=O)OCc3ccccc3)CC[C@]3(C)C(=CC[C@@H]4[C@@]5(C)CC[C@H](OC(=O)CCCCCCCNc6ccc([N+](=O)[O-])c7nonc67)C(C)(C)[C@@H]5CC[C@]43C)[C@@H]2C1` [Compound 7, Benzyl 3β-((8-((7-Nitrobenzo[c][1,2,5]oxadiazol-4-yl)amino)octanoyl)oxy)olean-12-en-28-oate]: in data set [3], the “(λabs)max” value is 480 nm, the “ε (molar extinction coefficient)” value is recorded as 2645 M^–1 cm^–1, the “τ (half-life time of fluorescence)” value is listed as 7.724 ns and the “Φ (fluorescence quantum yield)” value is reported as 0.71. Besides, the “(λem)max” value in data set [3] was determined as 547 nm. The same molecule showed an IC50 in data set [1] of 95.9 ± 2.2 µM. In the data set on B16-F10 murine melanoma, this molecule yielded an IC50 of 74.2 ± 2.2 µM. The IC50 in data set [4] is more than 80 µM. In addition, the IC50 in data set [2] worked out at 71.6 ± 1.7 µM.
As for `CC1(C)CC[C@]2(C(=O)OCc3ccccc3)CC[C@]3(C)C(=CC[C@@H]4[C@@]5(C)C[C@@H](OC(=O)CCCCCCCNc6ccc([N+](=O)[O-])c7nonc67)[C@H](O)C(C)(C)[C@@H]5CC[C@]43C)[C@@H]2C1` [Compound 8, Benzyl 3β-Hydroxy-2α-((8-((7-nitrobenzo[c][1,2,5]oxadiazol-4-yl)amino)octanoyl)oxy)olean-12-en-28-oate], in data set [3], the “(λabs)max” value amounted to 481 nm, the “ε (molar extinction coefficient)” value is listed as 3358 M^–1 cm^–1, the “τ (half-life time of fluorescence)” value is recorded as 7.639 ns and the “Φ (fluorescence quantum yield)” value worked out at 0.59. In addition, in data set [3], the “(λem)max” value is listed as 548 nm. The molecule also had an IC50 in data set [1] of 123 ± 1.7 µM. This molecule also displayed an IC50 in the data set on B16-F10 murine melanoma of 96.8 ± 1.8 µM. Moreover, in data set [4], the IC50 was more than 80 µM. This molecule also gave an IC50 in data set [2] of 95.3 ± 0.7 µM.
Take `CC1(C)CC[C@]2(C(=O)O)CC[C@]3(C)C(=CC[C@@H]4[C@@]5(C)CC[C@H](OC(=O)CCCCCCCCCCNc6ccc([N+](=O)[O-])c7nonc67)C(C)(C)[C@@H]5CC[C@]43C)[C@@H]2C1` [Compound 9, 3β-((11-((7-Nitrobenzo[c][1,2,5]oxadiazol-4-yl)amino)undecanoyl)oxy)olean-12-en-28-oic Acid]: in data set [3], the “(λabs)max” value is 481 nm, the “ε (molar extinction coefficient)” value amounted to 1015 M^–1 cm^–1, the “τ (half-life time of fluorescence)” value was found to be 7.635 ns and the “Φ (fluorescence quantum yield)” value was found to be 0.71. Moreover, in data set [3], the “(λem)max” value is 546 nm. Besides, in data set [1], the IC50 came out at 113 ± 4.4 µM. The IC50 with B16-F10 murine melanoma amounted to 101.1 ± 0.9 µM. Also, the IC50 in data set [4] is more than 50 µM. Moreover, the IC50 in data set [2] came out at 84.5 ± 0.4 µM.
With `CC1(C)CC[C@]2(C(=O)O)CC[C@]3(C)C(=CC[C@@H]4[C@@]5(C)C[C@@H](OC(=O)CCCCCCCCCCNc6ccc([N+](=O)[O-])c7nonc67)[C@H](O)C(C)(C)[C@@H]5CC[C@]43C)[C@@H]2C1` [Compound 10, 3β-Hydroxy-2α-((11-((7-nitrobenzo[c][1,2,5]oxadiazol-4-yl)amino)undecanoyl)oxy)olean-12-en-28-oic Acid], in data set [3], the “(λabs)max” value was 481 nm, the “ε (molar extinction coefficient)” value was 1199 M^–1 cm^–1, the “τ (half-life time of fluorescence)” value came out at 7.153 ns and the “Φ (fluorescence quantum yield)” value amounted to 0.45. Moreover, the “(λem)max” value in data set [3] amounted to 546 nm. The same molecule showed an IC50 in data set [1] of 110 ± 5.2 µM. The molecule further displayed an IC50 in the data set on B16-F10 murine melanoma of 107.7 ± 0.4 µM. Also, the IC50 in data set [4] was more than 50 µM. The same molecule showed an IC50 in data set [2] of 122.8 ± 0.9 µM.
For the molecule `CC1(C)CC[C@]2(C(=O)O)CC[C@]3(C)C(=CC[C@@H]4[C@@]5(C)C[C@@H](O)[C@H](O)C(C)(C)[C@@H]5CC[C@]43C)[C@@H]2C1` [MA, 2α,3β-dihydroxyolean-12-en-28-oic acid, reference compound], the IC50 in data set [1] stood at 32.2 ± 3.8 µM; in the data set on B16-F10 murine melanoma, 36.2 ± 2.5 µM; in data set [2], 99.2 ± 5.5 µM.
For `CC1(C)CC[C@]2(C(=O)O)CC[C@]3(C)C(=CC[C@@H]4[C@@]5(C)CC[C@H](O)C(C)(C)[C@@H]5CC[C@]43C)[C@@H]2C1` [OA, 3β-hydroxyolean-12-en-28-oic acid, reference compound], in that order: 429.9 ± 0.7 µM, 106 ± 3.7 µM and 211.8 ± 0.5 µM.
